Results from PubChem BioAssay AID1963962 (Molecular Pharmacology Branch, DTP, NCI, 2024).
Each block holds one compound with its values, some of them ahead of it.

System: 967376-340-R-J2-PDC multicell spheroid viability
Test: Anticancer human tumor 967376-340-R-J2-PDC patient-derived colon adenocarcinoma cell line growth inhibition [PI3K]
Conditions: for IC50: curve of first compound; for viability, T/C: stronger effect = lower value
How it was run: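 Stroma-containing spheroids: tumor line, pooled-donor HUVEC, hMSC. Treatments: targeted agents with PI3K inhibitors. Dosing: clinically relevant, half-log spacing, 10 microM ceiling without known Cmax. Read-out: cell viability.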

[1] = second compound 0.00316 µM, first compound 0.0316 µM
[2] = second compound 0.00316 µM, first compound 0.1 µM
[3] = second compound 0.01 µM, first compound 0.0316 µM
[4] = second compound 0.01 µM, first compound 0.1 µM
[5] = second compound 0.0316 µM, first compound 0.0316 µM
[6] = second compound 0.0316 µM, first compound 0.1 µM
[7] = second compound 0.0316 µM, first compound 0.316 µM
[8] = second compound 0.0316 µM, first compound 1 µM
[9] = second compound 0.0316 µM, first compound 3.16 µM
[10] = second compound 0.0316 µM, first compound 10 µM
[11] = second compound 0.1 µM, first compound 0.0316 µM
[12] = second compound 0.1 µM, first compound 0.1 µM
[13] = second compound 0.1 µM, first compound 0.316 µM
[14] = second compound 0.1 µM, first compound 1 µM
[15] = second compound 0.1 µM, first compound 3.16 µM
[16] = second compound 0.1 µM, first compound 10 µM
[17] = second compound 0.316 µM, first compound 0.0316 µM
[18] = second compound 0.316 µM, first compound 0.1 µM
[19] = second compound 0.316 µM, first compound 0.316 µM
[20] = second compound 0.316 µM, first compound 1 µM
[21] = second compound 0.316 µM, first compound 3.16 µM
[22] = second compound 0.316 µM, first compound 10 µM
[23] = second compound 1 µM, first compound 0.0316 µM
[24] = second compound 1 µM, first compound 0.1 µM
[25] = second compound 1 µM, first compound 0.316 µM
[26] = second compound 1 µM, first compound 1 µM
[27] = second compound 1 µM, first compound 3.16 µM
[28] = second compound 1 µM, first compound 10 µM
[29] = second compound 3.16 µM, first compound 0.0316 µM
[30] = second compound 3.16 µM, first compound 0.1 µM
[31] = second compound 3.16 µM, first compound 0.316 µM
[32] = second compound 3.16 µM, first compound 1 µM
[33] = second compound 3.16 µM, first compound 3.16 µM
[34] = second compound 3.16 µM, first compound 10 µM
[35] = second compound 10 µM, first compound 0.0316 µM
[36] = second compound 10 µM, first compound 0.1 µM
[37] = second compound 10 µM, first compound 0.316 µM
[38] = second compound 10 µM, first compound 1 µM
[39] = second compound 10 µM, first compound 3.16 µM
[40] = second compound 10 µM, first compound 10 µM
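Note: spheroids exposed to agents for 7 days before read-out.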
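Throughout, for viability, T/C: luminescence used as surrogate of cell viability.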

Structure (SMILES): CC(Nc1ccc2c(c1)OCCn1cc(N3C(=O)OCC3C(F)F)nc1-2)C(N)=O (configuration not stated)
viability, T/C (compound 0.0316 µM): 86.9% [middle of 7 runs] | viability, T/C (compound 0.1 µM): 81.4% [middle of 7 runs] | viability, T/C (compound 0.316 µM): 67% [middle of 7 runs] | viability, T/C (compound 1 µM): 52.7% [middle of 7 runs]

Structure (SMILES): CC(C)NCC(C(=O)N1CCN(c2ncnc3c2C(C)CC3O)CC1)c1ccc(Cl)cc1 (configuration not stated) + CC(Nc1ncnc2nc[nH]c12)c1cc2cccc(Cl)c2c(=O)n1-c1ccccc1
IC50 (second compound 0.0316 µM): > 10 µM | IC50 (second compound 0.1 µM): > 10 µM | IC50 (second compound 0.316 µM): > 10 µM | IC50 (second compound 1 µM): > 10 µM | IC50 (second compound 3.16 µM): > 10 µM | IC50 (second compound 10 µM): > 10 µM | viability, T/C [5]: 100% | viability, T/C [6]: 80.4% | viability, T/C [7]: 101% | viability, T/C [8]: 96.1% | viability, T/C [9]: 88.6% | viability, T/C [10]: 86.5% | viability, T/C [11]: 102% | viability, T/C [12]: 85% | viability, T/C [13]: 85.4% | viability, T/C [14]: 83.5% | viability, T/C [15]: 84.8% | viability, T/C [16]: 65.1% | viability, T/C [17]: 111% | viability, T/C [18]: 104% | viability, T/C [19]: 101% | viability, T/C [20]: 96.7% | viability, T/C [21]: 90.7% | viability, T/C [22]: 78.5% | viability, T/C [23]: 84.2% | viability, T/C [24]: 90.5% | viability, T/C [25]: 83.9% | viability, T/C [26]: 102% | viability, T/C [27]: 87.4% | viability, T/C [28]: 77.1% | viability, T/C [29]: 94% | viability, T/C [30]: 64.8% | viability, T/C [31]: 77.5% | viability, T/C [32]: 91.1% | viability, T/C [33]: 93.1% | viability, T/C [34]: 79.4% | viability, T/C [35]: 94.8% | viability, T/C [36]: 90.5% | viability, T/C [37]: 68.4% | viability, T/C [38]: 94.2% | viability, T/C [39]: 76.2% | viability, T/C [40]: 86.9%

Continued, in another order:

IC50 (second compound 0.00316 µM): > 10 µM | IC50 (second compound 0.01 µM): > 10 µM | IC50 (second compound 0.0316 µM): 4.96 µM | IC50 (second compound 0.1 µM): > 10 µM | IC50 (second compound 0.316 µM): 0.149 µM | IC50 (second compound 1 µM): < 0.0316 µM
Structure (SMILES): Cn1ncc(Cl)c1-c1cc(C(=O)NC(CN)Cc2cccc(F)c2)sc1Cl (configuration not stated) + COc1c(OCCCN2CCOCC2)ccc2c3n(c(=NC(=O)c4cnc(N)nc4)nc12)CCN3
viability, T/C [1]: 93.7% | viability, T/C [2]: 107% | viability, T/C (second compound 0.00316 µM, first compound 0.316 µM): 73.8% | viability, T/C (second compound 0.00316 µM, first compound 1 µM): 94.8% | viability, T/C (second compound 0.00316 µM, first compound 3.16 µM): 84.8% | viability, T/C (second compound 0.00316 µM, first compound 10 µM): 60.2% | viability, T/C [3]: 88.5% | viability, T/C [4]: 106% | viability, T/C (second compound 0.01 µM, first compound 0.316 µM): 76.2% | viability, T/C (second compound 0.01 µM, first compound 1 µM): 84.2% | viability, T/C (second compound 0.01 µM, first compound 3.16 µM): 67.3% | viability, T/C (second compound 0.01 µM, first compound 10 µM): 64.7% | viability, T/C [5]: 84.1% | viability, T/C [6]: 80.7% | viability, T/C [7]: 70.5% | viability, T/C [8]: 80.5% | viability, T/C [9]: 57.8% | viability, T/C [10]: 37.8% | viability, T/C [11]: 76.4% | viability, T/C [12]: 59.3% | viability, T/C [13]: 77.9% | viability, T/C [14]: 67.8% | viability, T/C [15]: 52.8% | viability, T/C [16]: 56.5% | viability, T/C [17]: 59.1% | viability, T/C [18]: 55.3% | viability, T/C [19]: 45.1% | viability, T/C [20]: 36% | viability, T/C [21]: 52.5% | viability, T/C [22]: 36.6% | viability, T/C [23]: 40.4% | viability, T/C [24]: 46.5% | viability, T/C [25]: 30.9% | viability, T/C [26]: 39.7% | viability, T/C [27]: 31.4% | viability, T/C [28]: 24.4%

IC50 (second compound 0.0316 µM): > 10 µM | IC50 (second compound 0.1 µM): 8.83 µM | IC50 (second compound 0.316 µM): 8.52 µM | IC50 (second compound 1 µM): > 10 µM | IC50 (second compound 3.16 µM): 4.67 µM | IC50 (second compound 10 µM): 2.63 µM
Structure (SMILES): CC1(C)CCC(CN2CCN(c3ccc(C(=O)NS(=O)(=O)c4ccc(NCC5CCOCC5)c([N+](=O)[O-])c4)c(Oc4cnc5[nH]ccc5c4)c3)CC2)=C(c2ccc(Cl)cc2)C1 + Cc1nc(NC(=O)N2CCCC2C(N)=O)sc1-c1ccnc(C(C)(C)C(F)(F)F)c1
viability, T/C [5]: 103% | viability, T/C [6]: 91.3% | viability, T/C [7]: 88.8% | viability, T/C [8]: 86% | viability, T/C [9]: 104% | viability, T/C [10]: 55.1% | viability, T/C [11]: 88.9% | viability, T/C [12]: 83.6% | viability, T/C [13]: 86.4% | viability, T/C [14]: 86.8% | viability, T/C [15]: 77.8% | viability, T/C [16]: 46.5% | viability, T/C [17]: 88.2% | viability, T/C [18]: 76.8% | viability, T/C [19]: 73% | viability, T/C [20]: 66.1% | viability, T/C [21]: 75.9% | viability, T/C [22]: 46% | viability, T/C [23]: 86.1% | viability, T/C [24]: 73.3% | viability, T/C [25]: 72.1% | viability, T/C [26]: 61.5% | viability, T/C [27]: 69.2% | viability, T/C [28]: 52.3% | viability, T/C [29]: 57.1% | viability, T/C [30]: 71.8% | viability, T/C [31]: 63% | viability, T/C [32]: 60.5% | viability, T/C [33]: 59% | viability, T/C [34]: 33.4% | viability, T/C [35]: 63.9% | viability, T/C [36]: 50.3% | viability, T/C [37]: 62.7% | viability, T/C [38]: 48.8% | viability, T/C [39]: 53% | viability, T/C [40]: 38.6%

IC50 (second compound 0.00316 µM): > 0.1 µM | IC50 (second compound 0.01 µM): > 0.1 µM | IC50 (second compound 0.0316 µM): > 0.1 µM | IC50 (second compound 0.1 µM): > 0.1 µM | IC50 (second compound 0.316 µM): < 0.000316 µM | IC50 (second compound 1 µM): < 0.000316 µM
Structure (SMILES): Cn1ncnc1[C@H]1c2n[nH]c(=O)c3cc(F)cc(c23)N[C@@H]1c1ccc(F)cc1 + COc1c(OCCCN2CCOCC2)ccc2c3n(c(=NC(=O)c4cnc(N)nc4)nc12)CCN3
viability, T/C (second compound 0.00316 µM, first compound 0.000316 µM): 102% | viability, T/C (second compound 0.00316 µM, first compound 0.001 µM): 95% | viability, T/C (second compound 0.00316 µM, first compound 0.00316 µM): 76.1% | viability, T/C (second compound 0.00316 µM, first compound 0.01 µM): 97% | viability, T/C [1]: 88.7% | viability, T/C [2]: 105% | viability, T/C (second compound 0.01 µM, first compound 0.000316 µM): 76.6% | viability, T/C (second compound 0.01 µM, first compound 0.001 µM): 94.9% | viability, T/C (second compound 0.01 µM, first compound 0.00316 µM): 81.1% | viability, T/C (second compound 0.01 µM, first compound 0.01 µM): 73.9% | viability, T/C [3]: 80.5% | viability, T/C [4]: 87.9% | viability, T/C (second compound 0.0316 µM, first compound 0.000316 µM): 85.2% | viability, T/C (second compound 0.0316 µM, first compound 0.001 µM): 90.4% | viability, T/C (second compound 0.0316 µM, first compound 0.00316 µM): 74.5% | viability, T/C (second compound 0.0316 µM, first compound 0.01 µM): 70.9% | viability, T/C [5]: 66.8% | viability, T/C [6]: 73.4% | viability, T/C (second compound 0.1 µM, first compound 0.000316 µM): 53.3% | viability, T/C (second compound 0.1 µM, first compound 0.001 µM): 70.4% | viability, T/C (second compound 0.1 µM, first compound 0.00316 µM): 56.5% | viability, T/C (second compound 0.1 µM, first compound 0.01 µM): 53.5% | viability, T/C [11]: 62.5% | viability, T/C [12]: 56.4% | viability, T/C (second compound 0.316 µM, first compound 0.000316 µM): 42.1% | viability, T/C (second compound 0.316 µM, first compound 0.001 µM): 40.9% | viability, T/C (second compound 0.316 µM, first compound 0.00316 µM): 44.6% | viability, T/C (second compound 0.316 µM, first compound 0.01 µM): 36.2% | viability, T/C [17]: 52.7% | viability, T/C [18]: 43.2% | viability, T/C (second compound 1 µM, first compound 0.000316 µM): 27.8% | viability, T/C (second compound 1 µM, first compound 0.001 µM): 26.8% | viability, T/C (second compound 1 µM, first compound 0.00316 µM): 39.8% | viability, T/C (second compound 1 µM, first compound 0.01 µM): 55.2% | viability, T/C [23]: 32.9% | viability, T/C [24]: 26.9%
